Assays:
Test in all cases: drug sensitivity score (DSS) from 5-point dose-response viability curve (DSS (area-under-curve based score)); higher = more sensitive (stronger growth inhibition or killing); extreme values may be limits of the assay
Conditions in all cases: exposure time: 72 h; concentration range: 5 concentrations over 10,000-fold range
CAOV3 = tested on: CAOV3
Method in brief: (§1)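 For the drug sensitivity score, obtained per cell line and drug in Breeze software, larger values mean greater sensitivity. No response corresponds to a score of zero. Ovarian cancer and normal ovarian cells were seeded at 1,500 per well into 384-well plates already holding acoustically dispensed drugs (Echo 550, DMSO or water, five concentrations over a 10,000-fold range) and incubated 3 days at 37°C, 5% CO2. CellTiter-Glo luminescence on a PHERAstar FS gave the viability readout.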

COV318 = tested on: COV318
Method in brief: as §1

COV362 = tested on: COV362
Method in brief: as §1

HOSE1C = tested on: HOSE1C
Method in brief: as §1

HOSE2C = tested on: HOSE2C
Method in brief: as §1

JHOS2 = tested on: JHOS2
Method in brief: as §1

Kuramochi = tested on: Kuramochi
Method in brief: as §1

OV90 = tested on: OV90
Method in brief: as §1

OVCAR4 = tested on: OVCAR4
Method in brief: as §1

OVCAR5 = tested on: OVCAR5
Method in brief: as §1

OVCAR8 = tested on: OVCAR8
Method in brief: as §1

Ovsaho = tested on: Ovsaho
Method in brief: as §1

Row | Compound | drug sensitivity score (CAOV3) | drug sensitivity score (COV318) | drug sensitivity score (COV362) | drug sensitivity score (HOSE1C) | drug sensitivity score (HOSE2C) | drug sensitivity score (JHOS2) | drug sensitivity score (Kuramochi) | drug sensitivity score (OV90) | drug sensitivity score (OVCAR4) | drug sensitivity score (OVCAR5) | drug sensitivity score (OVCAR8) | drug sensitivity score (Ovsaho)
1 | CC(C)C[C@@H](C(=O)N[C@H](C(=O)OC1CCCC1)c1ccccc1)[C@H](O)C(=O)NO [Tosedostat] | 7.4 | 0.4 | 0 | 0 | 2.1 | 15.7 | 0.6 | 12.3 | 7.4 | 8.3 | 6.9 | 5.1
2 | Cc1c(F)cc(C(=O)NC2CC2)cc1-c1ccc(C(=O)NCC(C)(C)C)cn1 [Losmapimod] | 0 | 0.4 | 0 | 0 | 0 | 0 | 2 | 1.5 | 0 | 0.9 | 0.2 | 0.7
3 | CN(C)C(=O)c1ccc(S(=O)(=O)c2ccc(NC(=O)[C@@](C)(O)C(F)(F)F)c(Cl)c2)cc1 [AZD7545] | 1.1 | 0 | 0 | 0 | 0.4 | 0 | 0 | 0 | 0 | 0 | 2.2 | 0
4 | CCOc1cc2ncc(C#N)c(Nc3ccc(OCc4ccccn4)c(Cl)c3)c2cc1NC(=O)/C=C/CN(C)C [Neratinib] | 5.3 | 0 | 0 | 0 | 1 | 1.4 | 0.4 | 0 | 0.6 | 2.9 | 4.8 | 0
5 | CCNC(=O)CCC/C=C\C[C@@H]1[C@@H](/C=C/[C@@H](O)CCc2ccccc2)[C@H](O)C[C@@H]1O [Bimatoprost] | 0 | 0 | 0 | 0 | 0 | 0 | 0 | 0 | 0 | 0 | 0 | 0
6 | COc1ccc(CCc2nc3cc(-c4c(C)noc4C)ccc3n2C[C@H](C)N2CCOCC2)cc1Cl [SGC-CBP30] | 3.7 | 3.1 | 0.2 | 11 | 6.1 | 1.7 | 6.6 | 3.4 | 2 | 2.9 | 5.7 | 6.6
7 | N#CCNC(=O)c1ccc(-c2ccnc(Nc3ccc(N4CCOCC4)cc3)n2)cc1 [Momelotinib] | 0.9 | 2.7 | 1 | 6.8 | 5.8 | 6.9 | 1 | 2.6 | 0 | 3.3 | 4.8 | 2.4
8 | CC(=O)O[C@@]12CO[C@@H]1C[C@H](O)[C@@]1(C)C(=O)[C@H](O)C3=C(C)[C@@H](OC(=O)[C@H](O)[C@@H](NC(=O)OC(C)(C)C)c4ccccc4)C[C@@](O)([C@@H](OC(=O)c4ccccc4)[C@H]21)C3(C)C [Docetaxel] | 28.7 | 9.5 | 9.3 | 29.3 | 27.6 | 13.9 | 16 | 15.5 | 8.1 | 23.4 | 27.7 | 10.3
9 | N#Cc1ccc(C(c2ccc(C#N)cc2)n2cncn2)cc1 [Letrozole] | 0 | 0 | 0 | 0 | 0 | 0 | 0 | 0 | 0 | 0 | 0 | 0
10 | CCn1c(C(=O)N(C2CC2)C2CC2)cc2c3c(ncn3C)c(Nc3cc(C)n(C)n3)nc21 | 0 | 0.4 | 0.2 | 0 | 0 | 0 | 2.6 | 0.5 | 0.3 | 0 | 0 | 0
11 | O=C(O)CNC(=O)c1c(O)c2ccccc2n(Cc2ccccc2)c1=O [IOX-2] | 0 | 0 | 0 | 0.1 | 0 | 0 | 0 | 0 | 0 | 0 | 0 | 0
12 | O=C(NOC[C@H](O)CO)c1ccc(F)c(F)c1Nc1ccc(I)cc1F | 11.7 | 0 | 2.4 | 0 | 0.4 | 3.2 | 5.2 | 21.6 | 2.1 | 9.7 | 1.7 | 13.5
13 | O=C(Nc1c[nH]nc1-c1nc2ccc(CN3CCOCC3)cc2[nH]1)NC1CC1 [AT9283] | 16.9 | 1.1 | 4.4 | 2.4 | 7.4 | 3.5 | 3.5 | 2.6 | 6.8 | 4.6 | 3.1 | 5.2
14 | CCCCCCCCCCCCCCCCOP(=O)([O-])OCC[N+](C)(C)C [Miltefosine] | 12.8 | 4.7 | 3.4 | 5.5 | 5.9 | 11.5 | 5.8 | 4.1 | 3.5 | 9.1 | 5 | 7.3
15 | C[C@@H](Oc1ccc2[nH]nc(/C=C/c3cnn(CCO)c3)c2c1)c1c(Cl)cncc1Cl | 6.9 | 2.3 | 2.2 | 8.5 | 22.7 | 2 | 1.8 | 5.3 | 2.5 | 5.5 | 3.4 | 4.9
